The record followed here is ChEMBL document CHEMBL1137026, “Design and synthesis of novel Cdc25A-inhibitors having phosphate group as a hydrophilic residue” (Bioorg Med Chem Lett, 2004).

The target of test [1] is T1, M-phase inducer phosphatase 1 (Homo sapiens, UniProt P30304).
T1 sequence (P30304 whole entry): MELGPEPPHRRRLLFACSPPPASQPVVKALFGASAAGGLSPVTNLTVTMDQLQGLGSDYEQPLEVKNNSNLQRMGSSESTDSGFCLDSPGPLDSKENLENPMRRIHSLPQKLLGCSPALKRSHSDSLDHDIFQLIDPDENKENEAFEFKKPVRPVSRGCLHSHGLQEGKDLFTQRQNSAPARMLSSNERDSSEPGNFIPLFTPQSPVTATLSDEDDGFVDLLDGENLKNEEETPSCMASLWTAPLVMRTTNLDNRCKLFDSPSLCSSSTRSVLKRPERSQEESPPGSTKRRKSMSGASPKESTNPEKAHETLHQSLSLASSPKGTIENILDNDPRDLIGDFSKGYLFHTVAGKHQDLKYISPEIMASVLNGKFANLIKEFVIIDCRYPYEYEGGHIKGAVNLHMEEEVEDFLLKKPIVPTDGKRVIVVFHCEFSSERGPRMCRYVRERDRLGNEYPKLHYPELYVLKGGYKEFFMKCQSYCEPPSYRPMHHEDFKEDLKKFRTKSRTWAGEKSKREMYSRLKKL
The test is described as follows: Inhibitory concentration against dual-specificity phosphatase Cell division cycle (Cdc) 25A.

The target of test [2] is T2, M-phase inducer phosphatase 2 (Homo sapiens, UniProt P30305).
T2 sequence (P30305 whole entry): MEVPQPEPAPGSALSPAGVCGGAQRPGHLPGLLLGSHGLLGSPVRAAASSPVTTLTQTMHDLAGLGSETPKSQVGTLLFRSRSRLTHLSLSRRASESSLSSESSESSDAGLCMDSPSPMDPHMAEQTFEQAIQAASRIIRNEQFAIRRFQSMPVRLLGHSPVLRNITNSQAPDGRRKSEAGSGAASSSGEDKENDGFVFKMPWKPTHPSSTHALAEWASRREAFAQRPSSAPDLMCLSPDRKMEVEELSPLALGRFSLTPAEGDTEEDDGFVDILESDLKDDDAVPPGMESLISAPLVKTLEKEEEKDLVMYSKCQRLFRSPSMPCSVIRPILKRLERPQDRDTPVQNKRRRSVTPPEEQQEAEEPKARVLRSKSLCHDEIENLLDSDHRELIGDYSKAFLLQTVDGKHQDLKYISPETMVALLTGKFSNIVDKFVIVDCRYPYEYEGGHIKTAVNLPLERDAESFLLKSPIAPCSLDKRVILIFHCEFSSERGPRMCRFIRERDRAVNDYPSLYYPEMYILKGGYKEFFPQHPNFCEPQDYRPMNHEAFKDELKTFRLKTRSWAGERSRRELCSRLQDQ
The test can be described thus: Inhibitory concentration against dual-specificity phosphatase Cell division cycle (Cdc) 25B.

pIC50: −log10 of the molar value.

As for `CC(C)CCC[C@@H](C)[C@H]1CCC2[C@@](C)(CO)CCC[C@@]21C` (some centres not stated), the pIC50 (as a rule, the negative decadic logarithm of the IC50, by convention in mol/L) in test [1] was 4.64; in test [2] it was 5.35.

For the compound `CC(C)CCC[C@@H](C)[C@H]1CCC2[C@@](C)(CCOP(=O)(O)O)CCC[C@@]21C` (some centres not stated), the pIC50 in test [1] was 4.61; in test [2] it was 5.17.

`CC(C)CCC[C@@H](C)[C@H]1CCC2[C@@](C)(CCO)CCC[C@@]21C` (some centres not stated): the pIC50 is 5.16 in test [1] and 5.89 in test [2].

With `CC(C)CCC[C@@H](C)[C@H]1CCC2[C@@H](O)CCC[C@@]21C` (some centres not stated), the pIC50 in test [1] is 5.41; in test [2], 5.24.

Take `CC(C)CCC[C@@H](C)[C@H]1CCC2[C@](C)(CCO)CCC[C@@]21C` (some centres not stated): the results for the pIC50 in test [1] and in test [2] were 5.26 and 5.77, respectively.

Consider `CC(C)CCC[C@@H](C)[C@H]1CCC2[C@](C)(CCOP(=O)(O)O)CCC[C@@]21C` (some centres not stated), for which the results for the negative logarithm of the IC50 (pIC50) in test [1] and in test [2] were 5.26 and 5.92, respectively.

Turning to `CC(C)CCC[C@@H](C)[C@H]1CCC2[C@@](C)(COP(=O)(O)O)CCC[C@@]21C` (some centres not stated), the figures for the pIC50 in test [1] and in test [2] were 6.15 and 5.43, respectively.

For `CC(C)CCC[C@@H](C)[C@H]1CCC2[C@](C)(CO)CCC[C@@]21C` (some centres not stated), the results for the pIC50 in test [1] and in test [2] were 5.07 and 5.48, respectively.

Regarding `CC(C)CCC[C@@H](C)[C@H]1CCC2/C(=C/C(=O)O)CCC[C@@]21C` (some centres not stated), the pIC50 in test [1] was 4.76; in test [2], 5.23.

`CC(C)CCC[C@@H](C)[C@H]1CCC2[C@@H](OP(=O)(O)O)CCC[C@@]21C` (some centres not stated): the figures for the pIC50 in test [1] and in test [2] were 5.09 and 5.30, respectively.

For `CC(C)CCC[C@@H](C)[C@H]1CCC2C(C)(COP(=O)(O)O)CCC[C@@]21C` (single isomer, unassigned), the pIC50 in test [1] was 6.05; in test [2], 5.52.
